Experimental data published in US4831049A, “Pyrrolizidine compounds, and their use as antiarrhythmic agents” (Suntory Limited, priority 1984, dated 1989).

Assays:
[1] = tested on: ventricular flutter and fibrillation; assay: Antiarrhythmic activity: prevention of ventricular flutter and fibrillation in mice caused to inhale chloroform; assay type: in vivo, male mice of ddy strain; details: for ED50: Mus musculus, sc, 0.5 h, subcutaneous, 30 minutes before chloroform inhalation, Litchfield and Wilcoxon, 95% confidence limit in parentheses
Protocol: In accordance with the method described by J. W. Lawson [Journal of pharmacology and Experimental Therapeutics, 160, 22, (1966)], male mice of ddy strain were caused to inhale chloroform and when respiration was arrested, electrocardiography was performed to observe the ventricular flutter and fibrillation. These abnormalities of the cardiac ventricle are prevented if an antiarrhythmic agent is previously administered. Several different doses of the compound of this invention were subctaneously administered to mice in group of 29 to 40 animals and, after an interval of 30 minutes, the animals were caused to inhale chloroform. The prophylactic effects of these doses on ventricular flutter and fibrillation were estimated and the 50% effective dose (ED50) and its 95% confidence limit were calculated by the method of Litchfield and Wilcoxon [Journal of Pharmacology and Experimental Therapeutics 96, 99, (1949)].

[2] = 50% lethal dose (LD50) by the up and down method; therapeutic index; assay type: in vivo; details: mouse, in vivo; male mice, bodyweight 18 to 22 g; up and down method
[3] = tested on: male mice; assay: as above; assay type: in vivo; details: for Therapeutic index: ratio of LD50 to ED50

Compound	ED50 [1]	LD50 [2]	Therapeutic index [3]	antiarrhythmic activity relative to the racemic compound ([1]; versus racemic compound [(±)-compound])	toxicity relative to the racemic compound ([3]; in words, versus racemic compound)	therapeutic index, in words ([3]; versus racemic compound)
Cc1cccc(C)c1NC(=O)C(C)C12CCCN1CCC2 (stereo not drawn) [N-(2,6-dimethylphenyl)-2-(8-pyrrolizidine)propionamide]	23 mg/kg	92.1 mg/kg	4.0	–	–	–
CCC(C(=O)Nc1c(C)cccc1C)C12CCCN1CCC2 (stereo not drawn)	8.5 mg/kg	26 mg/kg	3.1	–	–	–
Cc1cccc(C)c1NC(=O)C(c1ccccc1)C12CCCN1CCC2 (stereo not drawn)	3.1 mg/kg	22 mg/kg	7.1	–	–	–
Cc1cccc(C)c1NC(=O)[C@@H](C)C12CCCN1CCC2 [(2S)(+)-SUN3341, N-(2,6-dimethylphenyl)-2-(8-pyrrolizidine)propionamide]	24 mg/kg	79.3 mg/kg	3.3	–	–	–
Cc1ccc(NC(=O)C(C)C23CCCN2CCC3)cc1 (stereo not drawn)	115 mg/kg	400 mg/kg	3.4	–	–	–
Cc1cccc(C)c1NC(=O)[C@H](C)C12CCCN1CCC2 [(2R)(-)SUN3341, N-(2,6-dimethylphenyl)-2-(8-pyrrolizidine)propionamide]	2.6 mg/kg	67.6 mg/kg	26.0	approximately 9 times	comparable to the racemic compound in toxicity	remarkably improved therapeutic index
